From publication PMC3579312 (Journal of Medicinal Chemistry, 2013)
Entries after “also recorded” stand apart in the source; their conditions may differ.

Assays:
[1] = test system: Trypanosoma brucei brucei bloodstream-form (strain 427); assay: Trypanocidal activity, Alamar Blue viability, 72 h; format: cell-based; details: for Selectivity Index: HeLa EC50 versus T. brucei EC50; for combined trypanocidal action of 22s with nifurtimox: Figure 4
[2] = test system: nifurtimox-resistant T. brucei; assay: Trypanocidal activity against cloned nifurtimox-resistant cell line; format: cell-based, Trypanosoma brucei
Chagas’ disease = details: patients with Chagas’ disease; cited from earlier work
22s-resistant T. brucei = assay: Trypanocidal activity against cloned 22s-resistant cell line; format: cell-based, Trypanosoma brucei; details: 22s in 22s-resistant cells versus nifurtimox in wild-type
[3] = test system: human African trypanosomiasis; details: cited from earlier work

Row | SMILES | Selectivity Index [1] | other results
1 | CCc1cc(C(=O)NCCO)c(NC(=O)c2ccc([N+](=O)[O-])o2)s1 [Compound 12h] | >253 | 
2 | CCOC(=O)c1ccsc1NC(=O)c1ccc([N+](=O)[O-])o1 [Compound 12k] | >278 | 
3 | CCc1cc(C(N)=O)c(N)s1 [Compound 13g] |  | activity against T. brucei (in words) [1]: inactive
4 | CCOC(=O)c1cc(CC)sc1NC(=O)c1ccco1 [Compound 18a] |  | activity against T. brucei (in words) [1]: no activity
5 | CC1CS(=O)(=O)CCN1/N=C/c1ccc([N+](=O)[O-])o1 (stereo not shown) [Nifurtimox (5), Nifurtimox] |  | EC50 ([1]; read-out: T. brucei EC50, wild-type bloodstream form, 72 h): 2.1 ± 0.2 µM; EC50 ([2]; Trypanosoma brucei, read-out: EC50, nifurtimox resistant cells): 20.9 ± 1.7 µM; fold increase in EC50 (less sensitive) versus wild-type cells ([2]; nifurtimox-resistant versus wild-type): 9–10 fold; treatment cessation due to adverse side effects, share of patients (Chagas’ disease): over 30%
6 | C=CCOc1ccc(NC(=O)c2ccc([N+](=O)[O-])o2)cc1C(F)(F)F [Compound 22s, N-(4-(Allyloxy)-3-(trifluoromethyl)phenyl)-5-nitrofuran-2-carboxamide] | >8330 | combined trypanocidal action of 22s with nifurtimox ([1]; nifurtimox <700 nM, EC50 of 22s): synergy can be observed; also recorded: synergistic relationship; combined trypanocidal action of 22s with nifurtimox ([1]; nifurtimox above 700 nM): distinct lack of synergy; potency in 22s-resistant cells relative to nifurtimox in wild-type T. brucei (22s-resistant T. brucei): ~70 times
7 | O=C(Nc1ccc(C(F)(F)F)cc1)c1ccc([N+](=O)[O-])o1 [Compound 22h, 5-Nitro-N-(4-(trifluoromethyl)phenyl)furan-2-carboxamide] | >158 | 
8 | COC(=O)c1ccc([N+](=O)[O-])o1 [Compound 19] |  | activity against T. brucei (in words) [1]: inactive
9 | COc1ccc(NC(=O)c2ccc([N+](=O)[O-])o2)cc1C [Compound 22v] | >525 | 
10 | O=C(Nc1ccc(O)c(C(F)(F)F)c1)c1ccc([N+](=O)[O-])o1 [Compound 22r] | >9 | 
11 | CCNC(=O)c1cc(CC)sc1NC(=O)c1ccc([N+](=O)[O-])o1 [Compound 12e] | >136 | 
12 | COC(=O)c1ccc(NC(=O)c2ccc([N+](=O)[O-])o2)cc1 [Compound 22j] | >29 | 
13 | O=C(Nc1ccc(Cl)cc1)c1ccc([N+](=O)[O-])o1 [Compound 22i] | >48 | 
14 | COc1cccc(NC(=O)c2ccc([N+](=O)[O-])o2)c1 [Compound 22g] | >345 | 
15 | O=C(Nc1ccccc1)c1ccc([N+](=O)[O-])o1 [Compound 22b] | >710 | 
16 | C=CCOc1ccc(N(CC=C)C(=O)c2ccc([N+](=O)[O-])o2)cc1C(F)(F)F [Compound 22t] | >9 | 
17 | CCCCNC(=O)c1cc(CC)sc1NC(=O)c1ccc([N+](=O)[O-])o1 [Compound 12f] | >60 | 
18 | CCc1cc(C(N)=O)c(NC(=O)c2ccc([N+](=O)[O-])o2)s1 [Compound 12g, N-(3-Carbamoyl-5-ethylthiophen-2-yl)-5-nitrofuran-2-carboxamide] | >1155 | 
19 | CCc1cc(C(N)=O)c(NC(=O)c2cccc([N+](=O)[O-])c2)s1 [Compound 20b] | >8 | 
20 | COc1ccc(NC(=O)c2ccc([N+](=O)[O-])o2)cc1 [Compound 22k] | >261 | 
21 | O=C(Nc1ccc(O)cc1)c1ccc([N+](=O)[O-])o1 [Compound 22p] | >50 | 
22 | O=C(Nc1cccc(Br)c1)c1ccc([N+](=O)[O-])o1 [Compound 22f] | >192 | 
23 | Nc1nc(N)nc(Nc2ccc([As]3SCC(CO)S3)cc2)n1 (stereo not shown) [Melarsoprol (3), melarsoprol] |  | death, share of cases ([3]; HAT patients): ~6%; treatment failure rate ([3]; in certain areas): ≤ 30%
24 | O=C(NCc1cccc(C(F)(F)F)c1)c1ccc([N+](=O)[O-])o1 [Compound 22l, 5-nitro-N-(3-(trifluoromethyl)benzyl)furan-2-carboxamide] | >1149 | 
25 | O=C(Nc1cccs1)c1ccc([N+](=O)[O-])o1 [Compound 12j] | >322 | 
26 | O=C(Nc1cc(C(F)(F)F)cc(C(F)(F)F)c1)c1ccc([N+](=O)[O-])o1 [Compound 22n] | >78 | 
27 | CCCCOC(=O)c1cc(CC)sc1NC(=O)c1ccc([N+](=O)[O-])o1 [Compound 12d] | >625 | 
28 | CCCCc1cc(C(=O)OCC)c(NC(=O)c2ccc([N+](=O)[O-])o2)s1 [Compound 12b] | >160 | 
29 | CCOC(=O)c1cc(CC)sc1NC(=O)c1ccc([N+](=O)[O-])o1 [Compound 12a, Ethyl 5-Ethyl-2-(5-nitrofuran-2-carboxamido)thiophene-3-carboxylate] | >640 | 
30 | COc1cc(NC(=O)c2ccc([N+](=O)[O-])o2)cc(C(F)(F)F)c1 [Compound 22m] | >752 | 
